From patent publication US9351989B2, “Substituted purine nucleosides, phosphoroamidate and phosphorodiamidate derivatives for treatment of viral infections” (INHIBITEX, INC., priority 2010, dated 2016)

Tests used:
[1] = tested on: HCV replicon (Genotype 1b); experiment: Luciferase genotype 1b replicon potency assay; assay type: cell-based; conditions: Hepatitis C virus, Huh-7; luciferase-reporter genotype 1b subgenomic replicon cell line (Huh7); Renilla luciferase reporter activity
Experimental: (§1) Further to the above Examples, representative compounds, prepared according to the examples were tested for potency in an HCV replicon assay (Genotype 1b) for activity against the virus (EC50) and toxicity to the cells (CC50).
Huh7 Replicon Cell Lines and Cell Culture Conditions:
(§2) A luciferase-reporter genotype 1b subgenomic replicon cell line, and a genotype 1a full-length replicon cell line were obtained from Apath, LLC, Brooklyn, N.Y.: All cell lines were passaged twice a week by splitting 4 or 6 fold. Cells were maintained in DMEM-high glucose medium (HyClone, Logan, Utah) supplemented with 9% FBS (HyClone), 2 mM glutamine (Invitrogen, Carlsbad, Calif.), 100 U/mL PenStrep (Invitrogen). Media also contained 0.25 mg/mL of the antibiotic G-418 to maintain stable expression of the replicon (Invitrogen). Incubation was performed at 37° C. in 5% CO2 atmosphere. Replicon cell lines were used until they accumulated 15-to-18 passages, after which cells were restarted from the frozen stock. Seeding cell counts were routinely determined using an automatic Cedex HiRes cell counter (Flownomics Analytical Instruments, Madison, Wis.) or manually using INCYTO C—Chip™ Disposable Hemacytometers (Fisher Scientific, Pittsburgh, Pa.).
The anti-HCV assays were done accordingly:
Luciferase Genotype 1b Replicon Potency Assay.
Replicon cells were seeded into white 96-well plates (Nunc/VWR) at a density of 2×10^4 cells/well in medium without G-418. A Stacker Multidrop Liquid Dispenser (MTX Lab Systems, Vienna, Va.) was employed to ensure uniform and fast cell seeding into multiple plates. 18-24 h after cell plating, inhibitors were added and cells were incubated for additional 24, 48, or 72 h (as indicated). Compounds were tested in triplicates and quadruplicates at 3× or 4× serial dilutions over a range of 0.0001-to-10 μM concentrations. HCV replication was monitored by Renilla luciferase reporter activity assay using Renilla luciferase reporter (Promega, Madison, Wis.) and a Veritas Luminometer (Turner Biosystems, Sunnyvale, Calif.). 50% and 90% inhibitory concentration (IC50 and IC90) values were calculated as the concentration of compound that results correspondingly in 50% and 90% decreases in the reporter expression as compared to untreated cells. The values were determined by non-linear regression (four-parameter sigmoidal curve fitting) analysis.

[2] = Cytotoxicity assay (CellTiter-Glo); assay type: cell-based; conditions: human, toxicity to the cells, 72 h incubation, CellTiter-Glo cell viability
Experimental: as §1, §2
The cell cytotoxicity assay data was obtained as described below:
Cells were seeded into 96-well plates at a density of 2×10^4 cells per well. 24 h after cell plating, 11 serial 2× compound dilutions, starting with 100 μM, were applied to the testing plates (3 repeats per compound dilution). Each testing plate was run with a “no-compound” control. Incubation with compounds was continued at 37° C. in a CO2 incubator for 72 h. To determine cell viability, the CellTiter-Glo® assay (Promega, Madison, Wis.) was performed according to the manufacturer's protocol. The compound concentration resulting in 50% luminescent signal was reported as the CC50 concentration.

[3] = Huh7 HCV genotype 1b replicon cells

| Compound | IC50 [1] [µM] | CC50 at 72 h [2, 3] [µM] | CC50 at 72 h [2] [µM] |
| --- | --- | --- | --- |
| COc1nc(N)nc2c1nc(I)n2[C@@H]1O[C@H](CO)[C@@H](O)[C@@]1(C)O [Example 3, (2R,3R,4R,5R)-2-(2-Amino-8-iodo-6-methoxy-9H-purin-9-yl)-5-(hydroxymethyl)-3-methyltetrahydrofuran-3,4-diol] | 6.1 | > 100 | – |
| COc1nc(N)nc2c1nc(Br)n2[C@@H]1O[C@H](CO)[C@@H](O)[C@@]1(C)O [Example 5, (2R,3R,4R,5R)-2-(2-Amino-8-bromo-6-methoxy-9H-purin-9-yl)-5-(hydroxymethyl)-3-methyltetrahydrofuran-3,4-diol] | > 100 | > 100 | – |
| COc1nc(N)nc2c1nc(Cl)n2[C@@H]1O[C@H](CO)[C@@H](O)[C@@]1(C)O [Example 6, (2R,3R,4R,5R)-2-(2-Amino-8-chloro-6-methoxy-9H-purin-9-yl)-5-(hydroxymethyl)-3-methyltetrahydrofuran-3,4-diol] | > 100 | > 100 | – |
| COc1nc(N)nc2c1nc(I)n2[C@@H]1O[C@H](COP(=O)(N[C@@H](C)C(=O)OCc2ccccc2)Oc2cccc3ccccc23)[C@@H](O)[C@@]1(C)O (stereo partly drawn) [Example 7] | 0.031 | – | 18 |
| COc1nc(N)nc2c1nc(I)n2[C@@H]1O[C@H](COP(=O)(N[C@@H](C)C(=O)OCc2ccc(F)cc2F)Oc2cccc3ccccc23)[C@@H](O)[C@@]1(C)O (stereo partly drawn) [Example 8, (2S)-2,4-Difluorobenzyl 2-((((2R,3R,4R,5R)-5-(2-Amino-8-iodo-6-methoxy-9H-purin-9-yl)-3,4-dihydroxy-4-methyltetrahydrofuran-2-yl)methoxy)(naphthalen-1-yloxy)phosphorylamino)propanoate] | 0.009 | – | 8.1 |
| CCCOC(=O)[C@H](C)NP(=O)(OC[C@H]1O[C@@H](n2c(I)nc3c(OC)nc(N)nc32)[C@](C)(O)[C@@H]1O)Oc1cccc2ccccc12 (stereo partly drawn) [Example 9, (2S)-Propyl 2-((((2R,3R,4R,5R)-5-(2-Amino-8-iodo-6-methoxy-9H-purin-9-yl)-3,4-dihydroxy-4-methyltetrahydrofuran-2-yl)methoxy)(naphthalen-1-yloxy)phosphorylamino)propanoate] | 0.009 | – | 6 |
| CCCCOC(=O)[C@H](C)NP(=O)(OC[C@H]1O[C@@H](n2c(I)nc3c(OC)nc(N)nc32)[C@](C)(O)[C@@H]1O)Oc1cccc2ccccc12 (stereo partly drawn) [Example 10, (2S)-Butyl 2-((((2R,3R,4R,5R)-5-(2-Amino-8-iodo-6-methoxy-9H-purin-9-yl)-3,4-dihydroxy-4-methyltetrahydrofuran-2-yl)methoxy)(naphthalen-1-yloxy)phosphorylamino)propanoate] | 0.011 | – | 7.9 |
| CCCCCOC(=O)[C@H](C)NP(=O)(OC[C@H]1O[C@@H](n2c(I)nc3c(OC)nc(N)nc32)[C@](C)(O)[C@@H]1O)Oc1cccc2ccccc12 (stereo partly drawn) [Example 11, (2S)-Pentyl 2-((((2R,3R,4R,5R)-5-(2-Amino-8-iodo-6-methoxy-9H-purin-9-yl)-3,4-dihydroxy-4-methyltetrahydrofuran-2-yl)methoxy)(naphthalen-1-yloxy)phosphorylamino)propanoate] | 0.012 | – | 11 |
| COc1nc(N)nc2c1nc(I)n2[C@@H]1O[C@H](COP(=O)(N[C@@H](C)C(=O)OCC(C)(C)C)Oc2cccc3ccccc23)[C@@H](O)[C@@]1(C)O (stereo partly drawn) [Example 12, (2S)-Neopentyl 2-((((2R,3R,4R,5R)-5-(2-Amino-8-iodo-6-methoxy-9H-purin-9-yl)-3,4-dihydroxy-4-methyltetrahydrofuran-2-yl)methoxy)(naphthalen-1-yloxy)phosphorylamino)propanoate] | 0.02 | – | 14 |
| COc1nc(N)nc2c1nc(Br)n2[C@@H]1O[C@H](COP(=O)(N[C@@H](C)C(=O)OCC(C)(C)C)Oc2cccc3ccccc23)[C@@H](O)[C@@]1(C)O (stereo partly drawn) [Example 13, (2S)-Neopentyl 2-((((2R,3R,4R,5R)-5-(2-Amino-8-bromo-6-methoxy-9H-purin-9-yl)-3,4-dihydroxy-4-methyltetrahydrofuran-2-yl)methoxy)(naphthalen-1-yloxy)phosphorylamino)propanoate] | 15 | – | 60 |
| COc1nc(N)nc2c1nc(Cl)n2[C@@H]1O[C@H](COP(=O)(N[C@@H](C)C(=O)OCC(C)(C)C)Oc2cccc3ccccc23)[C@@H](O)[C@@]1(C)O (stereo partly drawn) [Example 14, (2S)-Neopentyl 2-((((2R,3R,4R,5R)-5-(2-Amino-8-chloro-6-methoxy-9H-purin-9-yl)-3,4-dihydroxy-4-methyltetrahydrofuran-2-yl)methoxy)(naphthalen-1-yloxy)phosphorylamino)propanoate] | > 10 | – | 60 |
| COc1nc(N)nc2c1nc(I)n2[C@@H]1O[C@H](COP(=O)(N[C@@H](C)C(=O)OC2CCC2)Oc2cccc3ccccc23)[C@@H](O)[C@@]1(C)O (stereo partly drawn) [Example 15, (2S)-Cyclobutyl 2-((((2R,3R,4R,5R)-5-(2-Amino-8-iodo-6-methoxy-9H-purin-9-yl)-3,4-dihydroxy-4-methyltetrahydrofuran-2-yl)methoxy)(naphthalen-1-yloxy)phosphorylamino)propanoate] | 0.01 | – | 6.8 |
| COc1nc(N)nc2c1nc(I)n2[C@@H]1O[C@H](COP(=O)(N[C@@H](C)C(=O)OC2CCCC2)Oc2cccc3ccccc23)[C@@H](O)[C@@]1(C)O (stereo partly drawn) [Example 16, (2S)-Cyclopentyl 2-((((2R,3R,4R,5R)-5-(2-Amino-8-iodo-6-methoxy-9H-purin-9-yl)-3,4-dihydroxy-4-methyltetrahydrofuran-2-yl)methoxy)(naphthalen-1-yloxy)phosphorylamino)propanoate] | 0.012 | – | 13 |
| COc1nc(N)nc2c1nc(I)n2[C@@H]1O[C@H](COP(=O)(N[C@@H](C)C(=O)OC2CCCCC2)Oc2cccc3ccccc23)[C@@H](O)[C@@]1(C)O (stereo partly drawn) [Example 17, (2S)-Cyclohexyl 2-((((2R,3R,4R,5R)-5-(2-Amino-8-iodo-6-methoxy-9H-purin-9-yl)-3,4-dihydroxy-4-methyltetrahydrofuran-2-yl)methoxy)(naphthalen-1-yloxy)phosphorylamino)propanoate] | 0.016 | – | 11 |
| COc1nc(N)nc2c1nc(I)n2[C@@H]1O[C@H](COP(=O)(N[C@@H](C)C(=O)OC2CCOCC2)Oc2cccc3ccccc23)[C@@H](O)[C@@]1(C)O (stereo partly drawn) [Example 18, (2S)-Tetrahydro-2H-pyran-4-yl 2-((((2R,3R,4R,5R)-5-(2-Amino-8-iodo-6-methoxy-9H-purin-9-yl)-3,4-dihydroxy-4-methyltetrahydrofuran-2-yl)methoxy)(naphthalen-1-yloxy)phosphorylamino)propanoate] | 0.018 | – | 26 |
| COc1nc(N)nc2c1nc(I)n2[C@@H]1O[C@H](COP(=O)(N[C@@H](CCSC)C(=O)OCc2ccccc2)Oc2cccc3ccccc23)[C@@H](O)[C@@]1(C)O (stereo partly drawn) [Example 19, (2S)-Benzyl 2-((((2R,3R,4R,5R)-5-(2-Amino-8-iodo-6-methoxy-9H-purin-9-yl)-3,4-dihydroxy-4-methyltetrahydrofuran-2-yl)methoxy)(naphthalen-1-yloxy)phosphorylamino)-4-(methylthio)butanoate] | 0.034 | – | 29 |
| COc1nc(N)nc2c1nc(I)n2[C@@H]1O[C@H](COP(=O)(N[C@H](C(=O)OCc2ccccc2)C(C)C)Oc2cccc3ccccc23)[C@@H](O)[C@@]1(C)O (stereo partly drawn) [Example 20, (2S)-Benzyl 2-((((2R,3R,4R,5R)-5-(2-Amino-8-iodo-6-methoxy-9H-purin-9-yl)-3,4-dihydroxy-4-methyltetrahydrofuran-2-yl)methoxy)(naphthalen-1-yloxy)phosphorylamino)-3-methylbutanoate] | 0.14 | – | 25 |
| COc1nc(N)nc2c1nc(I)n2[C@@H]1O[C@H](COP(=O)(N[C@@H](C)C(=O)OCc2ccccc2)N[C@@H](C)C(=O)OCc2ccccc2)[C@@H](O)[C@@]1(C)O [Example 21, (2S,2′S)-Benzyl 2,2′-((((2R,3R,4R,5R)-5-(2-Amino-8-iodo-6-methoxy-9H-purin-9-yl)-3,4-dihydroxy-4-methyltetrahydrofuran-2-yl)methoxy)phosphoryl)bis(azanediyl)dipropanoate] | 0.046 | 22 | – |
